Laboratory results as given in patent publication US11306122B2, “Compositions and methods of inhibiting the binding of plasma IgG autoantibodies to serotonin 2A receptor” (United States Government As Represented By The Department …, priority 2019, dated 2022).
Entries after “also recorded” stand apart in the source; their conditions may differ. Ends that are not written are not given here.

Columns and labels:
[1] = tested on: mouse N2A neuroblastoma cells; test: Acute N2A neurite retraction induced by TBI patient 5-HT2A receptor autoantibodies; assay type: cell-based; details: for effect on TBI autoantibody-induced acute neurite retraction: M100907 250-500 nM, Y27632 10 μM, other concentrations as in Table 17; for % of autoantibody Neurite Retraction from TBI patients: 60 nM IgG of representative TBI patient
Description: Acute neurite retraction. Mouse N2A neuroblastoma cells were maintained in Dulbecco's minimal essential medium with 10% fetal calf serum. […] Neurite retraction represents average neurite length-shortening after five minutes exposure to TBI (5-HT2A receptor) autoantibodies (60-100 nM) in the presence or absence of various G-protein coupled receptor (GPCR) or signaling pathway antagonists.
A 60 nanomolar concentration of the IgG autoantibodies (e.g., 5-HT2A receptor autoantibodies) from a representative TBI patient was incubated with N2A cells in the presence or absence of the indicated concentration of the selective GPCR antagonist.
A 60 nanomolar concentration of 5-HT2A receptor autoantibodies from TBI patients was incubated with N2A cells in the presence or absence of the indicated concentration of Gq11/PLC-gamma/IP3R antagonist or RhoA/Rho kinase pathway inhibitor.
Neurovascular 5-hydroxytryptamine (serotonin) 2A receptor (5-HT2AR) autoantibodies were previously reported to function as long-acting agonists in diabetic angiopathy and subsets of major depression, Parkinson's disease or dementia. The 5-HT2A receptor is highly expressed in specific brain regions underlying cognition, perception and mood regulation. Long-lasting 5-HT2A receptor activation by circulating autoantibodies might contribute to pathophysiology via central and peripheral mechanisms. Since the risk or incidence of Parkinson's disease, depression and dementia increase following traumatic brain injury (TBI), circulating neurotoxic autoantibodies (e.g., 5HT2AR) were tested, characterized and compared with autoantibodies from TBI patients vs. diabetic subsets with or without neurodegenerative disorders. Plasma IgG autoantibodies (e.g., 5-HT2AR autoantibodies) were obtained by protein-A affinity chromatography in ten male TBI patients mean age 64 years old.

[2] = tested on: N2A mouse neuroblastoma cells; test: Acute N2A neurite retraction induced by schizophrenia plasma autoantibodies; assay type: cell-based; details: for % AutoAB-induced neurite retraction: 20 nM Pt 1 schizophrenia AutoAB
Description: (§1) Methods: Plasma from five older adults with chronic schizophrenia and eight age-matched patients having another neuropsychiatric, immune or metabolic disorder was subjected to Protein-A affinity chromatography to obtain IgG autoantibodies. Mean neurite retraction (5 minutes) or cell survival (24 hours) was determined in mouse N2A neuroblastoma cells incubated with autoantibodies in the presence or absence of specific antagonists of the Gq/11/PLC/IP3R signaling pathway, Gi-coupled, beta-arrestin2-directed pathways, or LY379268.
Acute neurite retraction assay. Percent of basal neurite length in N2A cells expressing one or more proximally-located dendrite-like process was determined after interval exposure to test substances (Zimering M B, J Endocrinol Diabetes. 2018; 5(2): 10).
A twenty nanomolar concentration of protein-A eluate fraction of plasma from Pt 1 with schizophrenia was incubated with N2A cells in the presence or absence of the indicated concentration of each Gq/11, GPCR antagonist. Results are the mean+/−SD of two experiments.
A forty nanomolar concentration of plasma autoantibodies (AutoAB) from Pt 1 or Pt, schizophrenia, was incubated in the presence or absence of the indicated concentration of RhoA/Rho kinase (ROCK) inhibitor, or individual antagonists of the Gq11/PLC/IP3R signaling pathway. […]

N2A cells = test: N2A cell loss (MTT) induced by TBI patient autoantibodies; assay type: cell-based, mouse
Description: Cell survival was determined with MTT assay.
Mouse neuroblastoma cell loss. N2A cell loss was quantified using an MTT (3-(4,5-dimethylthiazol-2-yl)-2,5-diphenyltetrazolium bromide) tetrazolium reduction assay after overnight incubation with autoantibodies from TBI patients (Zimering M B, Endocrinol Diabetes Metab J. 2019 August; 3(4) pii: 118. Epub 2019 Aug. 14).

[3] = tested on: N2A mouse neuroblastoma cells; test: N2A cell survival (MTT) promoted by schizophrenia/psychosis plasma autoantibodies; assay type: cell-based; details: M100907 500 nM; LY379268 5 μM; pertussis toxin 100 ng/mL; LY294002 20 μM; 24 hours
Description: as §1
N2A cell survival. MTT assay was performed 24 hours after incubation with test substances (Zimering M B, J Endocrinol Diabetes. 2018; 5(2): 10).
Serotonin 2A receptor activation leads to f3-arrestin-2-mediated desensitization and receptor internalization. However, β-arrestin-2 can also couple with diverse signaling pathways leading to enhanced cell proliferation and/or survival promotion.

N2a neuroblastoma cells = test: N2a cell survival with ZDF rat plasma protein G eluate; assay type: cell-based, mouse; details: 1 μM antagonist; 1 μg/mL (10 nM) eluate; 24 hours
Description: Plasma was applied to a Protein G affinity chromatography column (which binds most subclasses or rat IgG autoantibodies), washed extensively and eluted in low pH (2.7) buffer. The resulting eluate was incubated with N2a neuroblastoma cells at 37 degrees C. for 24 hours.

[4] = Observation of side effects and sedation in ZDF rats; assay type: in vivo, Zucker diabetic fatty (ZDF) rat
Description: Normally these rats will feed nearly continuously when given the opportunity. This sedating effect was reproducible following a second IP injection of 1 mg of the SEQ ID NO: 2 in each of the 3 ZDR rats. […] Serotonin plays a major role in wakefulness and arousal in the nervous system. It is possible that the administration of SEQ ID NO: 2 blocks the action of the neurotransmitter serotonin at multiple sites in the periphery and in the central nervous system, inducing sleep via antagonism of serotonin's role in wakefulness/arousal, independent of the pronounced blood pressure-lowering effect.

[5] = Blood glucose in ZDF rats; assay type: in vivo, Zucker diabetic fatty (ZDF) rat

Molecule	prevention of mean neurite retraction in TBI patient 5-HT2AR autoantibodies ([1]; M100907 200-670 nM, n=10 TBI patients, retraction alone 52±10%)	effect on TBI autoantibody-induced acute neurite retraction [1]	% of autoantibody Neurite Retraction from TBI patients ([1]; antagonist 250 nM)	effect on LY379268-potentiated SCZ autoantibody-induced neurite retraction ([2]; M100907 500 nM)	effect on schizophrenia autoantibody-induced neurite retraction ([2]; M100907 two-hundred nanomolar, Y27632 ten micromolar, Y254890 one micromolar)	% AutoAB-induced neurite retraction ([2]; antagonist 200 nM)	effect alone on N2A cell survival (N2A cells; 250 nM-500 nM, without autoantibodies)	effect on accelerated N2A cell death/loss by TBI autoantibodies (N2A cells; M100907 250 nM (eight of eight patients), prazosin 850 nM (n=5), one-fiftieth dilution, 24 hours)	effect on autoantibody-induced N2A pro-survival/proliferation (words) [3]	effect on accelerated neuroblastoma cell death induced by ZDF rat protein G eluate (N2a neuroblastoma cells)	% of autoantibody Neurite Retraction from TBI patients ([1]; antagonist 400 nM)	% AutoAB-induced neurite retraction ([2]; antagonist 500 nM)	vomiting or other side effects during and for 15 days after administration ([4]; ZDF rats, alternate daily 2 mg/kg IP)	side effects eighteen days after injection ([4]; three ZDF rats, approximately 1 mg single intraperitoneal injection)	effect of repeated peptide injections on blood glucose concentration [5]
COc1cccc([C@H](O)C2CCN(CCc3ccc(F)cc3)CC2)c1OC [Peptide M100907]	89-91%	substantially prevented; also recorded: completely or nearly completed prevented	0%	significantly prevented	completely prevented	0 ± 0%	no significant effect	substantially prevented; also recorded: nearly completely prevented	significantly blocked	significantly reduced; also recorded: significant protection					
O=C(CCCN1CCC2(CC1)C(=O)NCN2c1ccccc1)c1ccc(F)cc1 [Spiperone]		substantially blocked								significantly reduced; also recorded: significant protection	20%	17 ± 6%			
SCLLADDN [Peptide 2]													did not experience vomiting or any other side effects	no untoward side effects were observed	no evidence that the peptide injections caused a significant increase in blood glucose concentration
